Tests used:
[1] = Stability of VCM in spiked human serum QC samples (bench-top, 30-day, autosampler, freeze-thaw), read by CD-MEKC; assay type: in vitro ADME; details: for Accuracy (%), autosampler stability / Accuracy (%), freeze–thaw stability / Accuracy (%), bench-top stability / Accuracy (%), 30-day stability: found vs initial concentration, CD-MEKC UV; for Accuracy (%), autosampler stability: 25 °C for 8 h; for Accuracy (%), autosampler stability / Accuracy (%), freeze–thaw stability / Accuracy (%), bench-top stability / Accuracy (%), 30-day stability / Measured Concentration (Mean ± SD), bench-top stability / Measured Concentration (Mean ± SD), autosampler stability / Measured Concentration (Mean ± SD), freeze–thaw stability / Measured Concentration (Mean ± SD), 30-day stability: n = 5; for Accuracy (%), freeze–thaw stability: three freeze–thaw cycles; for Accuracy (%), bench-top stability: 25 °C for 2 h; for Accuracy (%), 30-day stability: −80 °C, 30 days; for Measured Concentration (Mean ± SD), bench-top stability: ambient temperature (25 °C) for 2 h; for Measured Concentration (Mean ± SD), bench-top stability / Measured Concentration (Mean ± SD), autosampler stability / Measured Concentration (Mean ± SD), freeze–thaw stability / Measured Concentration (Mean ± SD), 30-day stability: CD-MEKC UV 210 nm; for Measured Concentration (Mean ± SD), autosampler stability: spiked human serum sample, kept at ambient temperature (25 °C) for 8 h; for Measured Concentration (Mean ± SD), freeze–thaw stability: after three freeze–thaw cycles; for Measured Concentration (Mean ± SD), 30-day stability: stored at −80 °C for 30 days
Description: Analyte stability determinations comprised short-term temperature stability (bench-top stability), long-term stability (30-day stability), autosampler stability, and freeze-thaw cycles stability, which were evaluated by analyzing three QC levels in VCM. The peak areas obtained from both stability tests were compared with the peak areas obtained with freshly prepared samples. The mean values and standard deviations of the ratios between the concentrations found and initial concentration were used for stability evaluation.
The BGE used in this study was 25 mM borate buffer with 50 mM SDS and 2% sulfobutyl-β-CD (pH 9.50). It was prepared by weighting appropriate amounts of Na2B4O7∙10H2O, SDS, and sulfobutyl-β-CD, followed by thoroughly mixing and dissolving with 100 mL deionized water. NaOH (1 mol/L) was used for adjusting pH to 9.50. BGE solutions were prepared freshly every day and filtered through a 0.45 μm hydrophilic cellulose membrane filter prior to use. The separation voltage was 15 kV (+) → (−). Hydrodynamic injection mode was performed at a pressure of 0.5 psi for 5 s. The capillary was conditioned by rinsing with 0.1 mol/L NaOH (1 min) followed by BGE (5 min) sequentially between the runs in order to maintain an active and reproducible inner surface.
Standard stock solution (1 mg/mL) of VCM and the IS were prepared in methanol. Working standard solutions (ranging from 10 to 500 µg/mL) were prepared daily by diluting the stock solution to the desired concentration with deionized water. The IS solution was prepared by deionized water at the concentration of 200 µg/mL. The standard solutions were stored in brown glass vials to protect from light at 4 °C. Calibration samples were obtained by diluting standard working solutions (10 μL) with drug-free human control serum (90 μL), to span a calibration standard range of 1–100 µg/mL for VCM. QC samples (3, 15, 80 µg/mL) were independently prepared by spiking an appropriate amount of the working standard solution in drug-free human control serum.
A simple and rapid sample preparation was applied by protein precipitation in SiroccoTM 96-well filtration plate (Waters Corp., Milford, MA, USA). Standard curve samples (100 μL), QC samples, and subject serum samples were added individually into 96-well plates by an eight-channel hand-held pipettor. To precipitate the serum protein, 200 μL ACN (acetonitrile) solution c ontaining 100 μg/mL of the IS solution was added to each sample (standards, QCs, and samples). Sirocco plates were capped and mixed by vortexing for 3 min and held for 15 min, subsequently placed on a vacuum manifold, and filtered to remove any precipitated material. The filtrate was collected into another 96-well plate and was evaporated to dryness with a nitrogen flow at 37 °C (TURBOVAP 96, Biotage, Uppsala, Sweden). All dry residues were reconstituted by the addition of 50 μL water. Finally, the plates were vortex mixed for 1 min, followed by centrifugation for 10 min at 12,000 rpm at 4 °C using a 5804 R Eppendorf refrigerated centrifuge (Hamburg, Germany). The supernatant was transferred to the autosampler for injection onto the CE.

[2] = intraperitoneal, in the presence of peritonitis; ref guideline of ISPD; cited from earlier work
[3] = parameters: method as in doi:10.1016/0378-5173(93)90252-B; details: cited from earlier work
Source text: The pH value of BGE is an important factor in CE. VCM is a glycopeptide antibiotic with quite a complex structure. It contains six functional groups which participate in acid-base equilibria. Namely, its net charge in solution strongly depends on the solution pH. […] Protonations of amino (primary and secondary amino) and three phenolate groups take place between pH 13 and 5 in multiply overlapping stages. […] Owing to t ...

PDAP patients = assay: Clinical safety observation in PDAP patients treated with i.p. vancomycin; assay type: in vivo, human
Description: Patients were treated with intraperitoneal (i.p.) vancomycin (Vancocin, Eli Lilly) for 1.0 g every 5–7 days. Nine PDAP patients’ samples were collected, and the trough concentrations of VCM were measured. […] Side effects were not observed in patients who were treated with VCM. The 15–20 µg/mL range was determined in three samples (17.06 µg/mL, 15.39 µg/mL, and 19.25 µg/mL), which was reported as the effective treatment window. […] In view of patients’ residual renal function and peritoneal permeability, levels <15 µg/mL were found in four samples (12.88 µg/mL, 5.48 µg/mL, 8.90 µg/mL, and 9.30 µg/mL). ISPD recommends that re-dosing is appropriate once serum vancomycin levels go below 15 µg/mL.

[4] = spiked human serum, HQC 80 µg/mL
[5] = spiked human serum, LQC 3 µg/mL
[6] = spiked human serum, MQC 15 µg/mL

Structure (SMILES): CN[C@H](CC(C)C)C(=O)N[C@H]1C(=O)N[C@@H](CC(N)=O)C(=O)N[C@H]2C(=O)N[C@H]3C(=O)N[C@H](C(=O)N[C@H](C(=O)O)c4cc(O)cc(O)c4-c4cc3ccc4O)[C@H](O)c3ccc(c(Cl)c3)Oc3cc2cc(c3O[C@@H]2O[C@H](CO)[C@@H](O)[C@H](O)[C@H]2O[C@H]2C[C@](C)(N)[C@H](O)[C@H](C)O2)Oc2ccc(cc2Cl)[C@H]1O [VCM, vancomycin]
- Stability in spiked serum samples (in words) ([1]; bench-top, 30-day, autosampler and freeze-thaw conditions, three QC levels): stable
- Accuracy (%), autosampler stability ([1]; HQC 80 µg/mL): 105.70%
- Accuracy (%), freeze–thaw stability ([1]; HQC 80 µg/mL): 108.80%
- Accuracy (%), autosampler stability ([1]; LQC 3 µg/mL): 103.80%
- Accuracy (%), freeze–thaw stability ([1]; LQC 3 µg/mL): 110.40%
- Accuracy (%), autosampler stability ([1]; MQC 15 µg/mL): 107.10%
- Accuracy (%), freeze–thaw stability ([1]; MQC 15 µg/mL): 104.60%
- Accuracy (%), bench-top stability [1, 4]: 108.40%
- Accuracy (%), 30-day stability [1, 4]: 106.60%
- Accuracy (%), bench-top stability [1, 5]: 107.80%
- Accuracy (%), 30-day stability [1, 5]: 104.70%
- Accuracy (%), bench-top stability [1, 6]: 102.70%
- Accuracy (%), 30-day stability [1, 6]: 104.90%
- Measured Concentration (Mean ± SD), bench-top stability ([1]; spiked human serum (table title: plasma), LQC 3 µg/mL): 3.271 ± 0.02 µg/mL
- Measured Concentration (Mean ± SD), autosampler stability ([1]; HQC 80 µg/mL): 85.57 ± 0.29 µg/mL
- Measured Concentration (Mean ± SD), autosampler stability ([1]; LQC 3 µg/mL): 3.15 ± 0.01 µg/mL
- Measured Concentration (Mean ± SD), autosampler stability ([1]; MQC 15 µg/mL): 16.26 ± 0.09 µg/mL
- Measured Concentration (Mean ± SD), freeze–thaw stability [1, 4]: 88.01 ± 0.23 µg/mL
- Measured Concentration (Mean ± SD), bench-top stability [1, 4]: 87.69 ± 0.38 µg/mL
- Measured Concentration (Mean ± SD), 30-day stability [1, 4]: 86.24 ± 0.52 µg/mL
- Measured Concentration (Mean ± SD), freeze–thaw stability [1, 5]: 3.35 ± 0.02 µg/mL
- Measured Concentration (Mean ± SD), 30-day stability [1, 5]: 3.18 ± 0.01 µg/mL
- Measured Concentration (Mean ± SD), freeze–thaw stability [1, 6]: 15.88 ± 0.07 µg/mL
- Measured Concentration (Mean ± SD), bench-top stability [1, 6]: 15.59 ± 0.09 µg/mL
- Measured Concentration (Mean ± SD), 30-day stability [1, 6]: 15.92 ± 0.08 µg/mL
- Fraction of i.p. vancomycin absorbed [2]: approximately 90%
- pI value [3]: about 7.10
- Side effects (PDAP patients; PDAP patients treated with VCM, i.p. 1.0 g every 5–7 days): not observed
- Changes in renal function before and after treatment (PDAP patients; nine PDAP patients, i.p. vancomycin 1.0 g every 5–7 days): No significant changes
